Results taken from patent US6156700A, “3-(1,2-Benzisothiazol- and isoxazol-5-yl)-2,4(1H,3H)-pyrimidinedione or thione and 3-(1,2-benzisothiazol- and isoxazol-5-yl)-4(3H)-pyrimidinone or thione herbicidal agents” (American Cyanmid Company, priority 1998, dated 2000).

Tests used:
[1] = tested on: Velvetleaf, Abutilon theophrasti; test: Postemergence herbicidal evaluation, ABUTH; format: in vivo, Medic.
In short: (§1)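 Foliar spray, 40 psi, ~0.0157–0.500 kg a.i./ha, vehicle acetone/water 1:1 with 0.5% TWEEN 20, on seedlings grown ~2 weeks. Readout: 0–9 visual injury score relative to control at 4–5 weeks.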

[2] = tested on: Sicklepod, Cassia obtusifolia; test: Postemergence herbicidal evaluation, CASOB; format: in vivo, L.
In short: as §1

[3] = tested on: Morningglory Spp., Ipomoea Spp.; test: Postemergence herbicidal evaluation, IPOSS; format: in vivo; details: 0.2500 kg/ha
Protocol: In the tests, seedling plants are grown in jiffy flats for about two weeks. The test compounds are dispersed in 50/50 acetone/water mixtures containing 0.5% TWEEN®20, a polyoxyethylene sorbitan monolaurate surfactant of Atlas Chemical Industries, in sufficient quantities to provide the equivalent of about 0.0157 kg to 0.500 kg per hectare of active compound when applied to the plants through a spray nozzle operating at 40 psi for a predetermined time. After spraying, the plants are placed on greenhouse benches and are cared for in accordance with conventional greenhouse procedures. From four to five weeks after treatment, the seedling plants are examined and rated according to the rating system set forth below. Where more than one test is involved for a given compound, the data are averaged.
(§2) Results of herbicide evaluation are expressed on a rating scale (0-9). The scale is based upon a visual observation of plant stand, vigor, malformation, size, chlorosis and overall plant appearance as compared with a control.

[4] = tested on: Rice, Tebonnet, Oryza sativa; test: Postemergence herbicidal evaluation, ORYSAT; format: in vivo, (L.) Tebonnet
In short: as §1

[5] = tested on: Wheat, Winter, cv Riband, Triticum aestivum; test: Postemergence herbicidal evaluation, TRZAWR; format: in vivo
In short: as §1

[6] = tested on: Corn, Field, Zea mays; test: Postemergence herbicidal evaluation, ZEAMX; format: in vivo, L.
In short: as §1

[7] = tested on: Ragweed, Common, Ambrosia artemisifolia; test: Preemergence herbicidal evaluation, AMBEL; format: in vivo, L.; details: 0.2500 kg/ha
Source text: as §2
(§3) The preemergence herbicidal activity of the test compounds of the present invention is exemplified by the following tests in which the seeds of a variety of monocotyledonous and dicotyledonous plants are separately mixed with potting soil and planted on top of approximately one inch of soil in separate pint cups. After planting, the cups are sprayed with the selected aqueous acetone solution containing test compound in sufficient quantity to provide the equivalent of about 0.0156 to 0.500 kg per hectare of test compound per cup. The treated cups are then placed on greenhouse benches, watered and cared for in accordance with conventional greenhouse procedures. From four to five weeks after treatment, the tests are terminated and each cup is examined and rated according to the rating system provided in Example 185.
(§4) The compounds evaluated are reported by compound number given in Example 185.

[8] = tested on: Sicklepod, Cassia obtusifolia; test: Preemergence herbicidal evaluation, CASOB; format: in vivo, L.; details: 0.2500 kg/ha
Source text: as §2, §3, §4

[9] = tested on: Morningglory Spp., Ipomoea Spp.; test: Preemergence herbicidal evaluation, IPOSS; format: in vivo; details: 0.2500 kg/ha
Source text: as §2, §3, §4

[10] = tested on: Barnyardgrass, Echinochloa crus-galli; test: Preemergence herbicidal evaluation, ECHCG; format: in vivo, (L.) Beau; details: 0.2500 kg/ha
Source text: as §2, §3, §4

[11] = tested on: Foxtail, Green, Setaria viridis; test: Preemergence herbicidal evaluation, SETVI; format: in vivo, (L.) Beau; details: 0.2500 kg/ha
Source text: as §2, §3, §4

[12] = tested on: Rice, Tebonnet, Oryza sativa; test: Preemergence herbicidal evaluation, ORYSAT; format: in vivo, (L.) Tebonnet; details: 0.2500 kg/ha
Source text: as §2, §3, §4

[13] = tested on: Wheat, Winter, cv Riband, Triticum aestivum; test: Preemergence herbicidal evaluation, TRZAWR; format: in vivo; details: 0.2500 kg/ha
Source text: as §2, §3, §4

[14] = tested on: Corn, Field, Zea mays; test: Preemergence herbicidal evaluation, ZEAMX; format: in vivo, L.; details: 0.2500 kg/ha
Source text: as §2, §3, §4

[15] = tested on: ECHORC Watergrass (Calif.); test: Preemergence weed control, flooded paddy (Table III); format: in vivo, Echinochloa oryzoides; design: scale not given here
Protocol: (§5) Preemergence herbicidal activity under flooded paddy conditions is determined as follows: plant seeds or propagating organs are planted in the top 0.5 cm of silt loam soil in 32 oz. plastic containers with a diameter of 10.5 cm and no drainage holes. Water is added to these containers and maintained at 1.5 to 3 cm above the soil surface for the duration of the experiment. The test compounds are applied as aqueous/acetone mixtures 50/50 v/v pipetted directly into the flood water to give the equivalent of about 0.0313 to 0.500 kg/ha of active ingredient. The treated containers are placed on greenhouse benches and cared for in accordance with conventional greenhouse procedures. Three to four weeks after treatment, the test is terminated and each container is examined and herbicidal effect rated according to the rating system provided in Example 185. The compounds evaluated are reported by compound number given in Example 185.

[16] = tested on: CYPIR Rice Flatsedge; test: as above; format: in vivo, Cyperus iria; design: scale not given here
Protocol: as §5

[17] = tested on: CYPSE Flatsedge; test: as above; format: in vivo, Cyperus serotinus; design: scale not given here
Protocol: as §5

[18] = tested on: MOOVA Monochoria; test: as above; format: in vivo, Monochoria vaginalis; design: scale not given here
Protocol: as §5

[19] = tested on: SAGPY Arrowhead (Pygmaea); test: as above; format: in vivo, Sagittaria pygmaea; design: scale not given here
Protocol: as §5

[20] = tested on: CYPSE Flatsedge; test: Postemergence weed control, flooded paddy (Table IV); format: in vivo, Cyperus serotinus; design: scale not given here
Source text: (§6) Plastic containers containing weeds which are 3 to 5 cm tall and rice seedlings at the 1.5 to 2.5 leaf stage are flooded with water. The water is maintained at 1.5 to 3 cm above the soil surface for the duration of the experiment. Test compounds are applied as aqueous/acetone mixtures 50/50 v/v directly into the flood water to provide the equivalent of about 0.0313 to 0.500 kg/ha of active ingredient. The treated containers are placed on greenhouse benches and cared for in accordance with conventional greenhouse procedures. Three to four weeks after treatment, the test is terminated and each container is examined and herbicidal effect rated according to the rating system provided in Example 185. The compounds evaluated are reported by compound number given in Example 185.

[21] = tested on: MOOVA Monochoria; test: as above; format: in vivo, Monochoria vaginalis; design: scale not given here
Source text: as §6

COC(=O)COc1ccc(C)cc1-c1nsc2ccc(-n3c(=O)cc(C(F)(F)F)n(C)c3=O)cc12 [Compound 2, Methyl {{2-{5-[3,6-dihydro-3-methyl-4-(trifluoromethyl) -2,6-dioxo-1(2H)-pyrimidinyl]-1,2-benzisothiazol-3-yl]-p-tolyl}oxy}acetate]
7.5: herbicide rating (0-9) ([6]; 0.2500 kg/ha)
0.0: herbicidal effect rating ([17]; 0.0313 kg/ha) | herbicidal effect rating ([17]; 0.0625 kg/ha) | herbicidal effect rating ([17]; 0.1250 kg/ha) | herbicidal effect rating ([17]; 0.2500 kg/ha) | herbicidal effect rating ([17]; 0.5000 kg/ha) | herbicidal effect rating ([19]; 0.0313 kg/ha) | herbicidal effect rating ([19]; 0.0625 kg/ha) | herbicidal effect rating ([20]; 0.1250 kg/ha) | herbicidal effect rating ([20]; 0.2500 kg/ha) | herbicidal effect rating ([20]; 0.5000 kg/ha)
7.7: herbicide rating (0-9) [12]
7.2: herbicide rating (0-9) ([5]; 0.0630 kg/ha)
4.0: herbicide rating (0-9) [13] | herbicidal effect rating ([19]; 0.2500 kg/ha)
7.8: herbicide rating (0-9) ([4]; 0.0630 kg/ha)
6.5: herbicide rating (0-9) ([2]; 0.0630 kg/ha)
8.0: herbicide rating (0-9) ([6]; 0.0630 kg/ha) | herbicidal effect rating ([16]; 0.0313 kg/ha)
2.0: herbicidal effect rating ([19]; 0.1250 kg/ha)
8.3: herbicide rating (0-9) [10]
9.0: herbicide rating (0-9) ([1]; 0.0630 kg/ha) | herbicide rating (0-9) ([1]; 0.2500 kg/ha) | herbicide rating (0-9) ([2]; 0.2500 kg/ha) | herbicide rating (0-9) [3] | herbicide rating (0-9) ([4]; 0.2500 kg/ha) | herbicide rating (0-9) ([5]; 0.2500 kg/ha) | herbicide rating (0-9) [7] | herbicide rating (0-9) [8] | herbicide rating (0-9) [9] | herbicide rating (0-9) [11] | herbicidal effect rating ([15]; 0.0313 kg/ha) | herbicidal effect rating ([15]; 0.0625 kg/ha) | herbicidal effect rating ([15]; 0.1250 kg/ha) | herbicidal effect rating ([15]; 0.2500 kg/ha) | herbicidal effect rating ([15]; 0.5000 kg/ha) | herbicidal effect rating ([16]; 0.0625 kg/ha) | herbicidal effect rating ([16]; 0.1250 kg/ha) | herbicidal effect rating ([16]; 0.2500 kg/ha) | herbicidal effect rating ([16]; 0.5000 kg/ha) | herbicidal effect rating ([18]; 0.0625 kg/ha) | herbicidal effect rating ([18]; 0.1250 kg/ha) | herbicidal effect rating ([18]; 0.2500 kg/ha) | herbicidal effect rating ([18]; 0.5000 kg/ha) | herbicidal effect rating ([19]; 0.5000 kg/ha) | herbicidal effect rating ([21]; 0.1250 kg/ha) | herbicidal effect rating ([21]; 0.2500 kg/ha) | herbicidal effect rating ([21]; 0.5000 kg/ha)
5.6: herbicide rating (0-9) [14]
7.0: herbicidal effect rating ([18]; 0.0313 kg/ha)

COC(=O)C(C)Oc1ccc(C)cc1-c1nsc2ccc(-n3c(=O)cc(C(F)(F)F)n(C)c3=O)cc12 (stereo not shown) [Compound 3]
7.2: herbicide rating (0-9) ([4]; 0.0630 kg/ha)
9.0: herbicide rating (0-9) ([1]; 0.0630 kg/ha) | herbicide rating (0-9) ([1]; 0.2500 kg/ha) | herbicide rating (0-9) ([2]; 0.0630 kg/ha) | herbicide rating (0-9) ([2]; 0.2500 kg/ha) | herbicide rating (0-9) [3] | herbicide rating (0-9) ([4]; 0.2500 kg/ha) | herbicide rating (0-9) ([6]; 0.2500 kg/ha) | herbicide rating (0-9) [7] | herbicide rating (0-9) [8] | herbicide rating (0-9) [9] | herbicide rating (0-9) [11] | herbicidal effect rating ([15]; 0.0313 kg/ha) | herbicidal effect rating ([15]; 0.0625 kg/ha) | herbicidal effect rating ([15]; 0.1250 kg/ha) | herbicidal effect rating ([15]; 0.2500 kg/ha) | herbicidal effect rating ([15]; 0.5000 kg/ha) | herbicidal effect rating ([16]; 0.0313 kg/ha) | herbicidal effect rating ([16]; 0.0625 kg/ha) | herbicidal effect rating ([16]; 0.1250 kg/ha) | herbicidal effect rating ([16]; 0.2500 kg/ha) | herbicidal effect rating ([16]; 0.5000 kg/ha) | herbicidal effect rating ([18]; 0.0313 kg/ha) | herbicidal effect rating ([18]; 0.0625 kg/ha) | herbicidal effect rating ([18]; 0.1250 kg/ha) | herbicidal effect rating ([18]; 0.2500 kg/ha) | herbicidal effect rating ([18]; 0.5000 kg/ha) | herbicidal effect rating ([19]; 0.5000 kg/ha) | herbicidal effect rating ([21]; 0.1250 kg/ha) | herbicidal effect rating ([21]; 0.2500 kg/ha) | herbicidal effect rating ([21]; 0.5000 kg/ha)
6.0: herbicidal effect rating ([19]; 0.1250 kg/ha)
6.3: herbicide rating (0-9) [13]
4.0: herbicidal effect rating ([17]; 0.5000 kg/ha)
7.3: herbicide rating (0-9) [14]
6.8: herbicide rating (0-9) [12]
8.3: herbicide rating (0-9) ([6]; 0.0630 kg/ha) | herbicide rating (0-9) [10]
8.0: herbicide rating (0-9) ([5]; 0.2500 kg/ha) | herbicidal effect rating ([19]; 0.2500 kg/ha)
0.0: herbicidal effect rating ([17]; 0.0313 kg/ha) | herbicidal effect rating ([17]; 0.0625 kg/ha) | herbicidal effect rating ([17]; 0.1250 kg/ha) | herbicidal effect rating ([19]; 0.0313 kg/ha) | herbicidal effect rating ([20]; 0.1250 kg/ha) | herbicidal effect rating ([20]; 0.2500 kg/ha) | herbicidal effect rating ([20]; 0.5000 kg/ha)
2.0: herbicidal effect rating ([17]; 0.2500 kg/ha) | herbicidal effect rating ([19]; 0.0625 kg/ha)
8.8: herbicide rating (0-9) ([5]; 0.0630 kg/ha)
